Experimental data taken from paper PMC8296708, “The pan HDAC inhibitor Givinostat improves muscle function and histological parameters in two Duchenne muscular dystrophy murine models expressing different haplotypes of the LTBP4 gene” (Skeletal Muscle, 2021).

Tests used:
mdx mice [1] = experiment: Grip strength test (maximal normalized strength, FNmax) in mdx mice; format: in vivo, mouse (C57BL/10ScSn-Dmd^mdx/J)
From the text: For the efficacy studies, C57BL/10 J (Stock No: 000665) wild type (wt) and C57BL/10ScSn-Dmd^mdx/J (Stock No: 001801) 7–8-week-old male mice, DBA/2J wt (Stock No: 000671), and D2.B10-Dmd^mdx/J (Stock No: 013141) 6–7-week-old male mice were purchased from The Jackson Laboratories (Bar Harbor, Maine, USA). After 5 days of acclimatization in the animal facility, mice were randomized into different treatment groups based on their BW. C57BL/10J wt mice were assigned to the naive wt group (healthy mice that received no treatment, but were subjected to functional tests), whereas mdx mice were assigned to the following groups (9 mice/group; 4–5 mice/cage): naive mdx (mice that received no treatment, but were subjected to functional tests), vehicle (0.5% methylcellulose, p.o.), and Givinostat (0.1, 0.3, 1, 5, 10, 25, and 37.5 mg/kg, p.o.). DBA/2J mice were assigned to the naive wt group (healthy mice that received no treatment, but were subjected to functional tests), whereas D2.B10 mice were assigned to the following groups (12–13 mice/group; 4–5 mice/gage): vehicle (filtered tap water, p.o.), Givinostat (1, 5, 10, and 37.5 mg/kg, p.o.), prednisone 1 mg/kg, and Deflazacort 1 mg/kg (i.p.).
In the efficacy studies, Givinostat powder (ITF2357) was suspended in 0.5% methylcellulose (Sigma-Aldrich) and administered p.o. (by gavage) at the doses of 0.1, 0.3, 1, 5, 10, 25, and 37.5 mg/kg qdx5x15weeks (administration volume per mouse: 10 mL/kg) in mdx mice (see Additional Figure 1A). Vehicle-treated mdx mice received 0.5% methylcellulose suspension. Givinostat suspension was stored at + 4 °C, and it was freshly prepared every 7 days. […] Water consumption was weekly monitored throughout the entire duration of the study weighing the bottle of each cage (maximum 4 mice per cage). […] All mice were monitored daily and tolerability was evaluated on the basis of BW and clinical signs.
In both efficacy studies, the effectiveness of treatments was evaluated every week by measuring the forelimb strength by a grip strength meter (Ugo Basile SRL, Italy). BW of mdx (see Additional Figure 2) and D2.B10 mice (see Additional Figure 3) was also measured in order to normalize the absolute grip strength of each mouse with respect to its BW. […] The highest recorded value of maximal normalized strength (FNmax) obtained for each mouse at all the time points (from T0 to T15) was used for further analysis.
After taking baseline readings for behavioral assays (FNmax and distance run by the animals), mice were re-randomized based on these two parameters, also considering the previous randomization performed on their BW. […]

mdx mice [2] = experiment: Myofiber cross-sectional area (CSA) in mdx mice; format: in vivo, mouse (C57BL/10ScSn-Dmd^mdx/J)
From the text: Tibialis anterior (TA), gastrocnemius (GAS), DIA, and heart were collected from mice maintained under isoflurane anesthesia and sacrificed by cervical dislocation. These muscles were collected from C57BL/10J wt and mdx (5 mice/group) at the end of treatments and from DBA/2J wt and D2.B10 mice (5 mice/group) at two different time points to be examined by a pathologist (for more details see Additional Table 1). Due to the results obtained by the functional tests, muscles from only some treatment groups were analyzed in both DMD models (see Additional Table 1). All the collected muscles were fixed in 10% buffered formalin solution (Bio-optica, Milan, Italy) at + 4 °C for at least 48 h. After fixation, muscular samples were transversely trimmed, caged, and paraffin embedded overnight with an Automated Vacuum Tissue Processor Floor (ETP, Histo-Line Laboratories) and included in paraffin blocks. Serial transverse cross-sections (4 μm thick) were cut with a microtome (Leica RM 2255), collected onto uncoated glass slides, and stained using a standard protocol for hematoxylin and eosin (Mayer hematoxylin & Aqueous G Eosin 1%, Bio-Optica) and Sirius Red staining (Direct Red 80, Sigma-Aldrich). For the image analysis and quantitation, hematoxylin and eosin- and Sirius Red-stained slides were examined with an Olympus BX51 light microscope. From each sample, 1 to 3 random microphotographs at the magnification of × 4 and × 10 (TA, GAS and heart) or × 20 (DIA) were collected using Image-Pro Plus system. The digital images were processed by a pathologist using ImageJ software (U.S. National Institutes of Health, Bethesda, MD, USA). To quantify CSA and centralized nuclei (%) on hematoxylin and eosin-stained sections, one hundred myofibers were manually measured for each muscle/mouse using a tablet pen (Wacom Intruos) and analyzed by the ImageJ software after a linear calibration of 150 μm. The fibrotic area, corresponding to the area stained in red, was compared to the total area of the tissue section, and the results were expressed as percentage fibrosis. The % of fibrosis of muscles in the different treatment groups was expressed by averaging the three values obtained from each muscle.
The deciles of the CSA of the animals treated with Givinostat at the different doses were plotted against the corresponding deciles of the vehicle-treated mice and a linear regression analysis was performed on natural [CSAtreated = b CSAcontrol + a] and log_transformed data [log(CSAtreated) = log(a) + b log(CSAcontrol)]. […] In case of untransformed data, this means that the effect of Givinostat treatment is additive and any decile of the CSAtreatment distribution may be derived from the control data summing up a constant quantity (S) to each fiber AREA of the control group (CSAtreated = CSAcontrol + S). In case of log_transformed data, the effect of Givinostat has to be considered as a multiplicative factor on any generic fiber of the muscle under evaluation, whose size, after the treatment, results K times larger in comparison to the control group value (CSAtreated […] = K × CSAcontrol, with K = 10^a). The S or K parameter values were then determined through an iterative estimation procedure, based on sum of squares (SSQ) minimization, directly comparing the CSA distribution observed in treated animals with that obtained summing up the S value or multiplying by K the CSA values of the control group.

## CCN(CC)Cc1ccc2cc(COC(=O)Nc3ccc(C(=O)NO)cc3)ccc2c1 [Givinostat]
Mdx mice [1]; 37.5 mg/kg p.o., transient
  FNmax level on treatment day 49: comparable to that of wt healthy mice
Mdx mice [1]; 0.1-37.5 mg/kg p.o. qdx5x15weeks
  Effect on maximal normalized strength (FNmax): remarkable, dose-dependent increase of the FNmax
Mdx mice [1]; p.o. qdx5x15weeks
  Dose of maximal efficacy on FNmax: 37.5 mg/kg
Mdx mice [1]; vs vehicle
  Persistence of beneficial effect on FNmax: remained significant up to day 105
Mdx mice [2]; 37.5 mg/kg (same as vehicle)
  DIA fiber CSA, peak value: 550 μm^2
Mdx mice [2]; 37.5 mg/kg, after 105 days (vehicle peak 500)
  GAS fiber CSA, peak of distribution: 1100 μm^2
Mdx mice [2]; 37.5 mg/kg, multiplicative model
  K, multiplicative factor on GAS fiber CSA vs vehicle: 1.72
Mdx mice [2]; 10 and 37.5 mg/kg (vehicle 700)
  TA fiber CSA, peak value: 900 μm^2
Mdx mice [2]; additive model
  S, shift effect parameter on TA CSA vs vehicle: 140 μm^2
